Data as given in US4127687A, “Prevention of fouling of marine structures such as boat hulls” (Rohm and Haas Company, priority 1976, dated 1978).
Values after ≈ are worked out from the molar mass of the structure shown. Where two headings read alike, the source gives them in different places.

Tests used:
barnacle = test: Membrane Diffusion Raft Trials, barnacle control; assay type: in vivo, barnacles; conditions: membrane test, average 15 to 16 weeks of immersion
Outline: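 Test compound held in a plastic container sealed by a porous membrane, diffusing into surrounding seawater on raft panels alongside standard poisons and a non-toxic control membrane. Settlement timed and quantified by regular inspection; scored 0 (none), + (some) or ++ (effective), averaging 15 to 16 weeks' immersion.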

[1] = Water solubility by UV spectrophotometric method; assay type: physicochemical; conditions: water
Method: The water solubilities of several isothiazolones were determined by UV spectrophotometric measurements of saturated aqueous solution of each compound in comparison with measurement of solutions of carefully prepared known concentration as outlined in the following example.
DETERMINATION OF SOLUBILITY OF 5-CHLORO-2-(4-FLUOROPHENYL)-4-METHYL-3-ISOTHIAZOLONE OF EXAMPLE 115
A sample of 5-chloro-2-(4-fluorophenyl)-4-methyl-3-isothiazolone (0.0406 g., 1.67 × 10^-4 mole) was dissolved in 50 ml. of methanol. A 5 ml. aliquot of the solution was diluted to 1000 ml. with deionized water, providing a solution of 1.67 × 10^-5 moles/liter concentration. An ultraviolet spectrum of this solution was run using a 10 cm. cell. The absorbance (As) at the wave length of maximum absorption (279 nm.) was 1.208. The molar absorptivity, AM, was calculated from the relationship
where b and c are path length or cell thickness and concentration respectively. Thus, AM was [formula]
Another sample of the compound (0.3-0.5 g.) was stirred vigorously in 40 ml. of deionized water for approximately 72 hrs. to give a saturated solution. The mixture was filtered through very fine filter paper (Whatman No. 50) to remove all suspended solid. Small portions of the filtrate were diluted with water by various factors until an approximately mid-scale absorbance was obtained upon running an ultraviolet spectrum. Such an absorbance was obtained at a dilution of 10. The absorbance was 0.975 in a 10 cm. cell. Using the value for AM obtained earlier, in the equation

weed = test: Membrane Diffusion Raft Trials, weed control; assay type: in vivo, grass-like algal growth common in sea water; conditions: membrane test, average 15 to 16 weeks of immersion
Outline: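 Field raft test in sea water: known quantity of compound in container sealed with membrane of known porosity, diffusing into surrounding water; panels at waterline (illuminated, aerated) and flats (poorly lit, deeper). Fouling settlement inspected over about 15-16 weeks average immersion; scored 0 none, + some, ++ effective.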

[2] = Amount of toxicant remaining in the test container after membrane diffusion raft tests; assay type: physicochemical; set-up: key: 0: empty or trace; +: some; + +: ample; conditions: after completion of membrane diffusion raft tests
Outline: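 Known amount of compound held in a cylindrical container sealed with a membrane of known porosity, fixed to a raft panel so toxicant diffuses into the surrounding water. Each panel carries 35 test compounds, 4 standard poisons and 1 non-toxic membrane control. After the trial, container contents inspected visually for remaining toxicant (0 = empty or trace).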

Enteromorpha spores = test: Laboratory toxicity test (Lab Bioassay) with Enteromorpha spores; assay type: in vivo; conditions: using Enteromorpha spores
Description: Standard laboratory toxicity tests use Enteromorpha spores (zoospores or gametes) but Ectocarpus spores and barnacle nauplii may also be used. During the spore tests additional information on the control of bacterial and diatom slimes becomes available since these organisms are unavoidably introduced with the spore inoculum.
More detailed laboratory toxicity tests on promising compounds determine LD50 values as percentage saturated solution.
^c Using Enteromorpha spores.

[3] = saturated solution, Table 1, read-out: Solubility by UV method

Row | SMILES | Barnacle Control (barnacle) | solubility [1, 3] [µg/mL] | Weed Control (weed) | Contents at the end of test (amount of toxicants remaining in the test container) [2] | Lab Bioassay LD50 (Enteromorpha spores) | solubility [1] [µg/mL]
1 | O=c1cc(Cl)sn1-c1ccc(Cl)cc1 [Example 34] | + + | 41 (≈ 167 µM) | + + | + + | 0.025 percentage saturated solution | 
2 | CC(C)(C)CC(C)(C)n1sc(Cl)c(Cl)c1=O [Example 59] | + | 38 (≈ 135 µM) | + + | + + | 0.006 percentage saturated solution | 
3 | O=c1cc(Cl)sn1Cc1ccc(Cl)cc1 [Example 32] | + | 70 (≈ 269 µM) | + + | + + | 0.018 percentage saturated solution | 
4 | O=c1c(Cl)c(Cl)sn1Cc1ccc(Cl)cc1 [Example 72] | + | 11 (≈ 37.3 µM) | + + | + + | 0.015 percentage saturated solution | 
5 | CCCCC(CC)Cn1sc(Cl)cc1=O (stereo not drawn) [Example 17] | + + | 135 (≈ 545 µM) | + + | 0 | .013 percentage saturated solution | 
6 | O=c1c(Cl)c(Cl)sn1Cc1ccccc1 [Example 71] | + + | 52 (≈ 200 µM) | + + | + | 0.25 percentage saturated solution | 
7 | O=c1c(Br)c(Cl)sn1-c1ccc(Cl)cc1 [Example 93] | + + | 1.72 (≈ 5.29 µM) | + + | + + | 0.012 percentage saturated solution | 
8 | COc1ccc(-n2sc(Cl)cc2=O)cc1 [Example 38] | + | 300 (≈ 1240 µM) | + + | + + | 0.025 percentage saturated solution | 
9 | COc1c(Cl)cccc1-n1sc(Cl)cc1=O [Example 42] | + | 45 (≈ 163 µM) | + + | + + | 0.03 percentage saturated solution | 
10 | Cc1c(Cl)sn(-c2cccc(Cl)c2)c1=O [Example 113] | + | 13 (≈ 50 µM) | + + | + + | 0.013 percentage saturated solution | 
11 | O=c1c(Br)csn1C1CCCCC1 [Example 51] | + | 143 (≈ 545 µM) | + + | + | 0.01 percentage saturated solution | 
12 | CCCCCCCCCCCCn1sc(Cl)cc1=O [Example 23] | + | 0.7 to 1.5 (≈ 2.3 to 4.94 µM) | + + | + | 0.02 percentage saturated solution | 
13 | O=c1c(Br)c(Br)sn1Cc1ccc(Cl)cc1 [Example 99] | + | 1.7 (≈ 4.43 µM) | + + | + + | 0.01 percentage saturated solution | 
14 | CCCCC(CC)Cn1sc(Cl)c(Cl)c1=O (stereo not drawn) [Example 58] | + + | 30 (≈ 106 µM) | + + | + | 0.0024 percentage saturated solution | 
15 | O=c1c(Cl)c(Cl)sn1CCc1ccccc1 [Example 69] | 0 | 22 (≈ 80.2 µM) | + + | + + | 0.01 percentage saturated solution | 
16 | O=c1c(Cl)c(Cl)sn1-c1ccccc1 [Example 74] | + + | 8 (≈ 32.5 µM) | + + | + + | 0.03 percentage saturated solution | 
17 | Cc1c(Cl)sn(-c2ccc(Cl)cc2)c1=O [Example 114] | + + | 14 (≈ 53.8 µM) | + + | + + | 0.008 percentage saturated solution | 
18 | O=c1c(Br)c(Br)sn1C1CCCCC1 [Example 98] | 0 | 6.4 (≈ 18.8 µM) | + + | + | 0.02 percentage saturated solution | 
19 | O=c1c(Cl)c(Cl)sn1C1CCCCC1 [Example 67] | + + |  | + + | + | 0.3 percentage saturated solution | 48 (≈ 190 µM)
20 | O=c1c(Cl)c(Cl)sn1-c1ccc(Cl)cc1 [Example 75] | 0 | 3 (≈ 10.7 µM) | + + | + + | 0.006 percentage saturated solution | 
21 | Cc1c(Cl)cccc1-n1sc(Cl)c(Cl)c1=O [Example 78] | 0 | 3.7 (≈ 12.6 µM) | + + | + | 0.08 percentage saturated solution | 
22 | Cc1c(Cl)sn(CCc2ccccc2)c1=O [Example 108] | + + | 155 (≈ 611 µM) | 0 | + | > 1 percentage saturated solution | 
23 | COc1cc(Cl)ccc1-n1sc(Cl)cc1=O [Example 41] | + | 55 (≈ 199 µM) | + + | + + | 0.03 percentage saturated solution | 
24 | O=c1c(Br)csn1Cc1ccc(Cl)cc1 [Example 53] | + | 18 (≈ 59.1 µM) | + + | + + | 0.1 percentage saturated solution | 
